Assay results reported in publication PMC5635026, “Homo-PROTACs: bivalent small-molecule dimerizers of the VHL E3 ubiquitin ligase to induce self-degradation” (Nature Communications, 2017).

Key:
[1] = target: T1, V19CB (Homo sapiens, UniProt P40337); test: Size-exclusion chromatography (SEC) of complex formation with V19CB; type: binding; details: compound 30 µM; for shift of VCB peak / ternary complex formation in SEC: VCB 50 µM
T1 construct: made in house
Experimental: Protein expression and purification. Human proteins VHL (UniProt accession number: P40337), ElonginC (Q15369), and ElonginB (Q15370) were used for all protein expression. The short-isoform-containing VCB complex (V19CB) was expressed, purified and stored as described previously. For expression of the long-isoform-containing VCB complex (V30CB), N-terminally His6-tagged VHL (1–213), ElonginC (17–112) and ElonginB (1–104) were co-expressed in Escherichia coli BL21(DE3) at 20 °C for 18 h using 0.5 mM isopropyl β-D-1-thiogalactopyranoside (IPTG). E. coli cells were resuspended in binding buffer (50 mM HEPES, pH 8.0, 500 mM NaCl, 10 mM imidazole and 5 mM β-mercaptoethanol), lysed using a pressure cell homogenizer (Stansted Fluid Power), and lysate clarified by centrifugation. The supernatant was loaded onto a HisTrap FF affinity column (GE Healthcare) equilibrated with binding buffer, and bound protein was eluted using an imidazole gradient. The His6 tag was removed using thrombin protease (Sigma), and the untagged complex was dialyzed into binding buffer. V30CB was then loaded onto the HisTrap FF column a second time, allowing impurities to bind as the complex eluted without binding. The flow-through was dialyzed using a low-salt buffer (20 mM HEPES, pH 8.0, 25 mM NaCl and 1 mM DTT) and then loaded onto a Resource Q anion exchange column (GE Healthcare); bound protein was eluted across a linear NaCl gradient. V30CB was then additionally purified by size-exclusion chromatography using a Superdex-75 16/600 column (GE Healthcare) equilibrated with 20 mM HEPES, pH 7.5, 100 mM sodium chloride and 1 mM TCEP. All chromatography purification steps were performed using Äkta FPLC purification systems (GE Healthcare).
Size-exclusion chromatography (SEC). SEC experiments were carried out in a ÄKTA pure system (GE Healthcare) at room temperature. The oligomeric state of the VCB complex in solution was analyzed by gel filtration in a buffer containing 20 mM Bis-Tris (pH 7), 150 mM NaCl and 1 mM 1,4-dithiothreitol (DTT) using a Superdex 200 Increase 10/300 GL column (GE Healthcare) calibrated with globular proteins of known molecular weight (GE Healthcare, 28-4038-41/42). […] Sample volume for each injection was 200 µl, and the flow rate was 0.5 ml min^−1. Peak elution was monitored using ultraviolet absorbance at 280 nm.

[2] = target: pVHL30 (Homo sapiens, UniProt P40337); test: Immunoblot of pVHL30 protein level in U2OS cells (time course); type: cell-based; parameters: endogenous in cells; details: for cellular efficacy at longer time points: after 36 h; for time of treatment to complete degradation of pVHL30: time course
Experimental: Cell culture. Human cell lines HeLa, U2OS and HEK 293, purchased from ATCC, were propagated in DMEM supplemented with 10% fetal bovine serum (FBS), L- glutamine, 100 μg ml^−1 of penicillin/streptomycin at 37 °C and 5% CO2. Cells were maintained for no more than 30 passages. All cell lines were routinely tested for mycoplasma contamination using MycoAlert kit from Lonza. For compound treatment experiments, cells were transferred in six-well plates with either 3 × 10^5 or 5 × 10^5 cells per well in 2 ml of media. At 80% confluence, cells were treated with compounds at the desired concentration, reaching final DMSO concentration of 0.1% v/v. Cells were incubated at 37 °C and 5% CO2 for the desired time before harvesting.
Immunoblotting. Cells were lysed in lysis buffer (20 mM Tris pH 8, 150 mM NaCl, 1% Triton × 100) and a protease inhibitor cocktail (Roche) per 10 ml buffer. For protein extracts, the dishes were placed on ice. The media was aspirated and the tissue layer washed twice with ice-cold phosphate buffer saline (PBS). Lysis buffer (120 μl) was added and the cells detached from the surface with a cell scraper. After removal of the insoluble fraction by centrifugation, the protein concentration of the supernatant was determined by Pierce™ Coomassie (Bradford) Protein Assay Kit. Protein extracts were fractionated by SDS-PAGE on 4–12% Tris-Acetate NuPage® Novex® (Life Technologies) polyacrylamide gels and transferred to a nitrocellulose membrane using wet transfer. The membrane was then blocked with 5 % w/v Bovine serum albumin (BSA) in Tris-buffered saline (TBS) with 0.1% w/v Tween-20. For detecting proteins the following primary antibodies in the given concentrations were used: anti-β-Actin (Cell Signaling Technology, 4970S, 13E5) 1:2000, anti-VHL (Cell Signaling Technology, #68547) 1:1000, anti-Hif-1α (BD Biosciences, 610959, clone 54) 1:1,000, anti-hydroxy-HIF-1α (Hyp564) (Cell Signaling Techonology; #3434) 1:1,000, anti-PHD2 (Bethyl Laboratories; A300-322A) 1:1,000, anti-PHD3 (Bethyl Laboratories; A300-327A) 1:1000, anti-CRBN (Proteintech; 11435-1-AP) 1:1,000. Following incubation with a horseradish peroxidase-conjugated secondary antibody (Cell Signaling Technology), the signal was developed using enhanced chemiluminescence (ECL) Western Blotting Detection Kit (Amersham) on Amersham Hyperfilm ECL film (Amersham). Band quantification was performed using ImageJ software and reported as relative amount as ratio of the each protein band relative to the lane’s loading control. The values obtained were then normalized to 0.1% DMSO vehicle control. See Supplementary Fig. 12 for full-scanned images of western-blots shown in the main text figures.

pVHL30, sequence (P40337 whole entry): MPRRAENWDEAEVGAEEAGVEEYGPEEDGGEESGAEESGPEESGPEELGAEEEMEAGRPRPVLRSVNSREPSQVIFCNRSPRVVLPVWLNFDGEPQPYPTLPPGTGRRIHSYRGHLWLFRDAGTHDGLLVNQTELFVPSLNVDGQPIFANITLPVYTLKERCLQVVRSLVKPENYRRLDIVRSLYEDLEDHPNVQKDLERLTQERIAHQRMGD
T1 sequence (P40337 54-213): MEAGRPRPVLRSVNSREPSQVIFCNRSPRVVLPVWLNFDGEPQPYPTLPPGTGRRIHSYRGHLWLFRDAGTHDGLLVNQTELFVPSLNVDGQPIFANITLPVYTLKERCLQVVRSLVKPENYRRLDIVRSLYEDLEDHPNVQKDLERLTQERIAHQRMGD
T1 sequence (Q15369 17-112 partner limits assumed): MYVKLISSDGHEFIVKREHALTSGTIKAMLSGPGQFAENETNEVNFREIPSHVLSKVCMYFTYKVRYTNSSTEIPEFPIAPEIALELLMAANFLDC
T1 sequence (Q15370 1-104 partner limits assumed): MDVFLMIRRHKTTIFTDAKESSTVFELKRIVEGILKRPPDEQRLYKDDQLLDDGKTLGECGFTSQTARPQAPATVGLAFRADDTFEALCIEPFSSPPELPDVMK

Cc1ncsc1-c1ccc(CNC(=O)[C@@H]2C[C@@H](O)CN2C(=O)[C@@H](NC(=O)COCCOCCOCCOCCOCC(=O)N[C@H](C(=O)N2C[C@H](O)C[C@H]2C(=O)NCc2ccc(-c3scnc3C)cc2)C(C)(C)C)C(C)(C)C)cc1 [CM10, N ^1 ,N ^17-bis((S)-1-((2S,4R)-4-hydroxy-2-((4-(4-methylthiazol-5-yl)benzyl)carbamoyl)pyrrolidin-1-yl)-3,3-dimethyl-1-oxobutan-2-yl)-3,6,9,12,15-pentaoxaheptadecanediamide]
shift of VCB peak / ternary complex formation in SEC [1]: formation of a ternary complex eluting at identical retention volume when compared to CM11
cellular efficacy at longer time points [2]: retained their efficacy
time of treatment to complete degradation of pVHL30 [2]: 2 h

Cc1ncsc1-c1ccc(CNC(=O)[C@@H]2C[C@@H](O)CN2C(=O)[C@@H](NC(=O)COCCOCCOCCOCC(=O)N[C@H](C(=O)N2C[C@H](O)C[C@H]2C(=O)NCc2ccc(-c3scnc3C)cc2)C(C)(C)C)C(C)(C)C)cc1 [CM09, N ^1 ,N ^14-bis((S)-1-((2S,4R)-4-hydroxy-2-((4-(4-methylthiazol-5-yl)benzyl)carbamoyl)pyrrolidin-1-yl)-3,3-dimethyl-1-oxobutan-2-yl)-3,6,9,12-tetraoxatetradecanediamide]
shift of VCB peak / ternary complex formation in SEC [1]: formation of a ternary complex eluting at identical retention volume when compared to CM11
cellular efficacy at longer time points [2]: lost its cellular efficacy
time of treatment to complete degradation of pVHL30 [2]: 2 h

Cc1ncsc1-c1ccc(CNC(=O)[C@@H]2C[C@@H](O)CN2C(=O)[C@@H](NC(=O)COCCOCCOCCOCCOCCOCC(=O)N[C@H](C(=O)N2C[C@H](O)C[C@H]2C(=O)NCc2ccc(-c3scnc3C)cc2)C(C)(C)C)C(C)(C)C)cc1 [CM11, N ^1 ,N ^20-bis((S)-1-((2S,4R)-4-hydroxy-2-((4-(4-methylthiazol-5-yl)benzyl)carbamoyl)pyrrolidin-1-yl)-3,3-dimethyl-1-oxobutan-2-yl)-3,6,9,12,15,18-hexaoxaicosanediamide]
molecular weight of species in shifted SEC peak ([1]; V19CB 50 µM): ~ 90 kDa
cellular efficacy at longer time points [2]: retained their efficacy
time of treatment to complete degradation of pVHL30 [2]: 1 h
